Test results from PubChem BioAssay AID651871 (Sanford-Burnham Center for Chemical Genomics, 2012).
Where “and” joins values, the source holds several entries; their conditions need not be identical. Identical values can stand only once. Calls of active or inactive are those of the source.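 The calls were made as follows: active = compound whose mean IC50 is 10 µM or lower in every cell protection panel where tested; inactive = the rest.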

Assays:
H9c2 = assay: cardiomyocyte survival under oxidative or metabolic stress – cell-based, panel, H9c2 and HL-1, ATP luminescence, set 2, SAR follow-up (AID 651871); settings: H9c2/HL-1 cardiomyocytes;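 also: cells exposed to stressor for 2 h before ATP readout; potency for protection of cells against peroxide damage not for cytotoxicity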
HL-1 = assay: as above; settings: H9c2/HL-1 cardiomyocytes
[1] = 2-deoxyglucose stress, with 2-deoxyglucose, mean of runs
[2] = H2O2 oxidative stress, with H2O2, mean of runs

| Compound | IC50 (H9c2; [1]) | IC50 (H9c2; [2]) | IC50 (HL-1; [1]) | IC50 (HL-1; [2]) |
| --- | --- | --- | --- | --- |
| COc1ccc2nc(-c3cc(OC)c(OC)c(OC)c3)cc(C(=O)NCC(=O)Nc3ccc(C(C)=O)cc3)c2c1 | 3.87 µM | 0.634 µM and 0.44 µM | 4.3 µM | 6.53 µM and 3.98 µM |
| COc1cc(-c2cc(C(=O)Nc3cccc(C(=O)NCc4ccccc4)c3)c3ccccc3n2)cc(OC)c1OC | – | 0.411 µM | – | 3.97 µM |
| CCOC(=O)c1cccc(NC(=O)CNC(=O)c2cc(-c3cc(OC)c(OC)c(OC)c3)nc3ccccc23)c1 | 2.72 µM | 0.28 µM | 2.9 µM | 3.41 µM |
| COc1ccc2c(c1OC)C(=O)N1c3ccccc3C(=O)N(Cc3cccc(Cl)c3Cl)C21 (centres undefined) | 4.57 µM and 6.37 µM and > 79 µM (inactive) | 0.215 µM and 0.391 µM and 11.7 µM (inactive) | 2.65 µM and 3.05 µM and > 79 µM (inactive) | > 79 µM (inactive) |
